Assay results from patent US20160221932A1, “Methods and Uses of Melatonin Ligands” (priority 2013, published 2016).
Entries after “also recorded” stand apart in the source; their conditions may differ.

What was measured:
human MT1 receptor = target: T1, human MT1 receptor (Homo sapiens, UniProt P48039); experiment: 2-[125I]iodomelatonin competition binding, human MT1 in CHO cells; conditions: human MT1 stably expressed in CHO cells; calculated from IC50 by Cheng and Prusoff; read-out: MT1 pKi (converted)
T1 construct: expressed in transfected cells
T1 sequence (P48039 whole entry): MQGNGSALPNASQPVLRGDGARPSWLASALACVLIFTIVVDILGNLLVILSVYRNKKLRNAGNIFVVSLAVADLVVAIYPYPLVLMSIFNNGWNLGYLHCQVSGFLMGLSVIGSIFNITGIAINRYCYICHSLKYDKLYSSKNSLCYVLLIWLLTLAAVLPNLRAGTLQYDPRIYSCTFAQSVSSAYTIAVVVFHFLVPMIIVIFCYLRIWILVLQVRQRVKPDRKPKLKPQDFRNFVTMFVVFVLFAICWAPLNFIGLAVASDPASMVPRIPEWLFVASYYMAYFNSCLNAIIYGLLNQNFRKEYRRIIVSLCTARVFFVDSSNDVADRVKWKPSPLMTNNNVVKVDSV

human-cloned MT1 = target: T2, human-cloned MT1 (Homo sapiens, UniProt P48039); experiment: impedance assay in CHO cells expressing human-cloned MT1 (functional activity); format: cell-based; on MT1 Activity: key: A = ago0nist; PA = partial agonist; ANT = antagonits
T2 construct: expressed in transfected cells
T2 sequence (P48039 whole entry): as above

[1] = target: T3, human-cloned MT2 receptors (Homo sapiens, UniProt P49286); experiment: cAMP assay in CHO cells expressing human-cloned MT2 (functional activity); format: cell-based; on MT2 Activity: key: A = ago0nist; PA = partial agonist; ANT = antagonits
T3 construct: expressed in transfected cells
T3 sequence (P49286 1-362): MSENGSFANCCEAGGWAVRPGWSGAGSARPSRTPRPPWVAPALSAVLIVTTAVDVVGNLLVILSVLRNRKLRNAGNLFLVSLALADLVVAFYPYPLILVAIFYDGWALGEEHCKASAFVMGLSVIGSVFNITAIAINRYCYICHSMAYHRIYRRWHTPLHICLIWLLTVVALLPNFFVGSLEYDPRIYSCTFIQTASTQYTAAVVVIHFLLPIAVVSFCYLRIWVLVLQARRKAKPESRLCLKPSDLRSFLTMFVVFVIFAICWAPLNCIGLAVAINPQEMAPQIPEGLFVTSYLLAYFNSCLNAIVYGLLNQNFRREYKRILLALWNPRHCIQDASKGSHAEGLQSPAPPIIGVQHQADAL

human MT2 receptor = target: T4, human MT2 receptor (Homo sapiens, UniProt P49286); experiment: 2-[125I]iodomelatonin competition binding, human MT2 in CHO cells; conditions: human MT2 stably expressed in CHO cells; calculated from IC50 by Cheng and Prusoff; read-out: MT2 pKi (converted)
T4 construct: expressed in transfected cells
T4 sequence (P49286 1-362): T3 sequence (P49286 1-362)

Wistar rats [2] = experiment: formalin test; format: in vivo, rat; conditions: 30 min prior to test
Description: (§1) Animals: Wistar rats (150-250 g, Charles-River Saint-Constant, Quebec, Canada) were used for the formalin test, hot plate test and L5-L6 spinal nerves ligature model. The animals were housed at constant room temperature and humidity under a 12 h light/dark cycle (lights on at 7 AM). Food and water were available ad libitum.
Formalin Test: Antinociception was assessed using the formalin test (Dubuisson and Dennis, 1977). Rats were placed in open Plexiglas observation chambers for 60 min to allow them to acclimatize to their surroundings; then they were removed for formalin administration. Rats were gently restrained while the dorsal surface of the right hindpaw was injected with […] of 1% formalin (37% formaldehyde solution further diluted in saline solution) with a 30-gauge needle. The animals were returned to the chambers and nociceptive behavior was observed immediately after formalin injection. Mirrors were placed in each chamber to enable unhindered observation. Licking/biting behavior directed to the formalin injected paw was scored in 5 min intervals considering number and duration of the licking. Cumulative behavior for the total duration of the test as well as the first (0-10 min) and second phase (20-50 min) was then analyzed (Sufka et al., 1998).The initial acute phase (0-10 min) was followed by a relatively short quiescent period, which was then followed by a prolonged tonic response (15-60 min). The first phase is considered to be the result of direct stimulation of nociceptors, whereas inflammation process contributes to phase 2 activity (Hunskaar and Hole, 1987). At the end of the experiment the rats were sacrificed in a CO2 chamber.
(§2) Statistical Analysis: Data analysis was done using SigmaPlot 12 (Systat Software, Inc.). Two-way ANOVA for repeated measures was used to analyze data from L5-L6 models using treatments (between) and testing time (within) as factors. One-way ANOVA was used to analyze AUC in the L5-L6 spinal nerves ligation model. One-way ANOVA was used for formalin and hot-plate tests. Post-hoc analyses were performed using Bonferroni t-test comparisons or Student-Newman-Keuls (SNK) test. All data are expressed as mean±Standard Error of the Mean (SEM). P<0.05 was considered significant.

SNI rats = experiment: spared nerve injury (SNI) model, dynamic plantar aesthesiometer; format: in vivo, rat; conditions: 150 mg/kg s.c.
Description: Spared nerve injury (SNI) of the sciatic nerve and measurement of allodynia with the dynamic plantar aesthesiometer. SNI was performed according to the method of Decosterd and Woolf (2000). Rats were anaesthetized with sodium pentobarbital (50 mg/kg i.p.). The sciatic nerve was exposed at mid-thigh level […] to the trifurcation and freed of connective tissue; the three peripheral branches (sural, common peroneal, and tibial nerves) of the sciatic nerve were exposed without stretching nerve structures. Both tibial and common peroneal nerves were ligated and transected together. The sham procedure consisted of the same surgery without ligation and transection of the nerves. Fourteen days after SNI, mechanical allodynia was measured using the dynamic plantar aesthesiometer (Ugo Basile, Varese, Italy). Each rat was placed and allowed to move freely in one of the two compartments of the enclosure positioned on a metal grid surface. A mechanical stimulus was delivered to the plantar surface of the rat's hind paw through the metal grid by a steel filament (Von Frey-type), connected to a movable touch-stimulator unit exerting an increasing force of 3 g per second. The force inducing paw withdrawal was recorded to the nearest 0.1 g. Nociceptive responses for mechanical sensitivity (mechanical withdrawal threshold) were measured in grams before and after vehicle or drug administration by an experimenter blind to the treatments. A single trial at each time point was performed on the ipsilateral hind paw to SNI surgery for each rat. Nociceptive responses for mechanical sensitivity were expressed as mean±SEM (g). Groups of 6-7 rats per treatment were used, with each animal being used for one treatment only.
as §2

Wistar rats [3] = experiment: hot plate test; format: in vivo, rat
Description: Animals: Wistar rats (150-250 g, Charles-River Saint-Constant, Quebec, Canada) were used for the formalin test, hot plate test and L5-L6 spinal nerves ligature model. The animals were housed at constant room temperature and humidity under a 12 h light/dark cycle (lights on at 7 AM). Food and water were available ad libitum. Hot plate test: The hot-plate test was performed by using an electronically controlled hot-plate (Ugo Basile, Italy). The initial temperature was 38° C. A near linear increase in temperature (3° C. per min) was obtained by turning the heating adjustment to maximum. The temperature at which the fast hindpaw lick occurred was recorded as the nociceptive end-point. If no hindpaw lick was observed, the test was terminated at 52° C., and this cut-off value was used in the analysis. The plate was wiped with a wet cloth, and a fan located behind the plate allowed rapid cooling so that testing could be conducted every 7.5 min. Statistical Analysis: Data analysis was done using SigmaPlot 12 (Systat Software, Inc.). Two-way ANOVA for repeated measures was used to analyze data from L5-L6 models using treatments (between) and testing time (within) as factors. One-way ANOVA was used to analyze AUC in the L5-L6 spinal nerves ligation model. One-way ANOVA was used for formalin and hot-plate tests. Post-hoc analyses were performed using Bonferroni t-test comparisons or Student-Newman-Keuls (SNK) test. All data are expressed as mean±Standard Error of the Mean (SEM). P<0.05 was considered significant.

[4] = tested on: rats with L5-L6 spinal nerves ligation; experiment: L5-L6 spinal nerves ligature model, von Frey paw withdrawal threshold; format: in vivo, rat; conditions: for AUC of the antiallodynic effect across 8 h: mean±SEM, VEH 36.24±1.8 g
Description: as §1
L5-L6 Spinal Nerves Ligature: Nerve injury results in abnormal pain perception, known as neuropathic pain, which is associated with hyperalgesia (high pain sensibility) and allodynia (pain perception induced by innocuous stimuli) (Campbell and Meyer, 2006). The rat model for neuropathic pain develop by Kim and Chung (Kim and Chung, 1992) was used in which the L5 and L6 spinal nerves were ligated and two weeks later allodynia was measured by paw stimulation with von Frey filaments. Briefly, animals were anesthetized with a mixture of ketamine/xylazine/acepromazine (i.p.). Following surgical preparation and exposure of the dorsal vertebral column, the left L5 and L6 spinal nerves were exposed and tightly ligated with 3.0 chromic catgut suture distal to the dorsal root ganglion. For sham-operated rats, the nerves were exposed but not ligated. The incisions were closed using 3.0 vicryl sutures, and the animals were allowed to recover for 13 days.
On day 14 after surgery, rats were singularly placed in a test chamber (clear plastic, wire mesh-bottomed cage) and allowed to acclimatize for 30-40 min. Von Frey filaments (Stoelting, Wood Dale, Ill., USA) were used to measure the 50% paw withdrawal threshold using the up and down method by (Chaplan et al., 1994). […] Lifting of the paw indicated a positive response and prompted the use of the next weaker filament, whereas absence of paw withdrawal after 5 s indicated a negative response and prompted the next filament of increasing weight. This paradigm continued for four more measurements after the initial change of the behavioral response, or until five consecutive negative (assigned a score of 15 g), or four consecutive positive (assigned a score of 0.25 g) responses. The resulting score were used to calculate the 50% response threshold by using the formula proposed by Dixon et al., 1980.
Allodynia was considered to be present when paw withdrawal thresholds were less than 4 g. (Chaplan et al., 1994). All nerve-ligated rats were verified to be allodynic, responding to a stimulus of less than 4 g. Rats without allodynia were excluded. Following the determination of the basal response, tactile allodynia was assessed at 0.5, 1, 2, 3, 4, 5, 6, 7 and 8 h post-administration for each treatment below described.
[…] […] Another group of rats received only the vehicle (VEH) consisting on a 70% DMSO/saline solution (0.9% NaCl). All treatments were administered in a single subcutaneous injection with a volume of 1 ml. Rats were tested at 0 h (basal withdrawal threshold) and 0.5, 1, 2, 3, 4, 5, 6, 7 and 8 h post-treatment administration.
as §2

[5] = 3 mg/kg s.c., listed as Ketoprofen
[6] = 3 mg/kg s.c., listed as ketoprofen

## CC(=O)NCCN(c1ccccc1)c1cccc(OCCCCc2ccccc2)c1 [5i, N-{2-[(3-pheny/butoxyphenyl)-phenyl-amino]ethyl}acetamide]
Human MT1 receptor
  Ki: 35.5 nM
human-cloned MT1; CHO cells
  activity for the MLT receptor subtype MT1 (in words): antagonist activity
human-cloned MT1; intrinsic activity, human MT1 in CHO cells
  MT1 Activity: ANT
[1]; CHO cells
  activity for the MLT receptor subtype MT2 (in words): antagonist activity
[1]; intrinsic activity, human MT2 in CHO cells
  MT2 Activity: ANT
Human MT2 receptor
  Ki: 331 nM

## COc1ccc2[nH]cc(CCNC(C)=O)c2c1 [MLT, N-acetyl-5-methoxytryptamine, reference compound]
Wistar rats [2]; 150 mg/kg s.c.
  licking time vs vehicle, first phase: decreased the licking time
  licking time vs vehicle, second phase: decrease of the licking time; also recorded: decreased the licking time
  licking time vs vehicle, total time: decrease in the licking time; also recorded: decreased the licking time
Wistar rats [2]; 150 mg/kg s.c., listed as Melatonin
  licking time vs vehicle, first phase: decrease in the licking time
SNI rats
  effect on mechanical allodynia compared with GBP 100 mg/kg: lower magnitude than that produced by GBP
Wistar rats [3]; 150 mg/kg s.c., 30 min post treatment
  withdrawal temperature vs vehicle: significant increase of the withdrawal temperature
Wistar rats [3]; 150 mg/kg s.c., 1 hour post treatment
  withdrawal temperature vs vehicle: increase of withdrawal temperature; also recorded: increased the withdrawal temperature
Wistar rats [3]; 150 mg/kg s.c., 4 hours post treatment
  withdrawal temperature vs vehicle: increase the withdrawal temperature
[4]; 150 mg/kg s.c., at 2 h post-treatment
  maximum increase in withdrawal threshold: 335 % from baseline
[4]; 150 mg/kg s.c.
  AUC of the antiallodynic effect across 8 h: 131.75±7.9

## CCC(=O)NC1Cc2ccccc2C(c2ccccc2)C1 (centres unmarked) [4P-PDOT, reference compound]
[4]; 4P-PDOT 10 mg/kg 10 min before 5p 20 mg/kg, 8 h of testing
  effect of pre-treatment with MT2 antagonist on antiallodynic effect of 5p: blocked the effects of 5p

## CC(C(=O)O)c1cccc(C(=O)c2ccccc2)c1 (centres unmarked) [KET, Ketoprofen, reference compound]
Wistar rats [2]; 3 mg/kg s.c.
  licking time vs vehicle, first phase: decreased the licking time
  licking time vs vehicle, second phase: decreased the licking time
  licking time vs vehicle, total time: decreased the licking time
Wistar rats [2]; [5]
  licking time vs vehicle, first phase: decrease in the licking time
  licking time vs vehicle, second phase: decrease of the licking time
  licking time vs vehicle, total time: decrease in the licking time
Wistar rats [2]; [6]
  licking time vs vehicle, first phase: decrease in the licking time
  licking time vs vehicle, second phase: decrease of the licking time
  licking time vs vehicle, total time: decrease in the licking time

## CC(=O)Nc1ccc(O)cc1 [ACE, Acetaminophen, reference compound]
Wistar rats [3]; 200 mg/kg s.c., 1 hour post treatment
  withdrawal temperature vs vehicle: increased the withdrawal temperature
Wistar rats [3]; 200 mg/kg s.c., 1 hour post treatment, listed as acetaminophen
  withdrawal temperature vs vehicle: increase of withdrawal temperature
Wistar rats [3]; 200 mg/kg s.c., 4 hours post treatment
  withdrawal temperature vs vehicle: increased the withdrawal temperature
Wistar rats [3]; 200 mg/kg s.c., 4 hours post treatment, listed as acetaminophen
  withdrawal temperature vs vehicle: increase the withdrawal temperature

## NCC1(CC(=O)O)CCCCC1 [GBP, gabapentin, reference compound]
[4]; 100 mg/kg s.c., at 4 h
  maximum withdrawal threshold increase: 420 % from basal
[4]; 100 mg/kg s.c.
  AUC of the antiallodynic effect across 8 h: 249.33 ± 22.1 g
